In patent US20230321066A1, “PREVENTATIVE TREATMENT OF MIGRAINE” (priority 2020, published 2023):

Assays:
[1] = test system: episodic and chronic migraine patients; conditions: human, in vivo, 12 weeks
[2] = test system: episodic and chronic migraine patients; experiment: BHV3000-305 Phase 2/3 randomized, double-blind, placebo-controlled study of rimegepant in migraine prevention: efficacy; type: in vivo, human
Description: Clinical Trial—BHV3000-305: A Phase 2/3, Randomized, Double-blind, Placebo-controlled Study to Evaluate the Efficacy and Safety of Rimegepant in Migraine Prevention (ClinicalTrials.gov Identifier: NCT03732638).
A phase 2/3 clinical study was conducted with 1629 participants, as follows.
The purpose of this is study is to compare the efficacy of BHV-3000 (rimegepant) to placebo as a preventive treatment for migraine, as measured by the reduction in the number of migraine days per month.
• Study Type: Interventional (Clinical Trial) • Actual Enrollment: 1629 participants • Allocation: Randomized • Intervention Model: Parallel Assignment • Masking: Triple (Participant, Care Provider, Investigator) • Primary Purpose: Prevention • Official Title: A Phase 2/3, Randomized, Double-blind, Placebo-controlled Study to Evaluate the Efficacy and Safety of Rimegepant in Migraine Prevention • Actual Study Start Date: Nov. 14, 2018 • Actual Primary Completion Date: Dec. 10, 2019
Primary Outcome Measures: • 1. Change from baseline in mean number of migraine days per month [Time Frame: Mean number of migraine days per month as assessed over 3 months (12 weeks)] • Change from baseline in mean number of migraine days per month as measured over the 12-week double-blind phase of the study.
Secondary Outcome Measures: • 1. Achievement of at least a 50% reduction from baseline in mean number of moderate to severe monthly migraine days. [Time Frame: baseline to end of Week 12] • Achievement of at least a 50% reduction from baseline in mean number of moderate to severe monthly migraine days over course of the double-blind treatment phase. • 2. The mean number of rescue medication days per month. [Time Frame: baseline to end of week 12 as measure per month] • The mean number of rescue medication days per month over the course of the double-blind, treatment phase. Rescue medications include the rescue medications defined in this protocol. • 3. Adverse events. [Time Frame: baseline to end of Week 12] • Adverse events that occur in at least 5% of treated subjects; the frequency of unique subjects with serious adverse events, adverse events leading to discontinuation and clinically significant laboratory abnormalities, as reported on case report forms. • 4. The frequency of AST or ALT elevations. [Time Frame: baseline to end of Week 12] • The frequency of AST or ALT elevations>3×ULN, concurrently with bilirubin elevations>2×ULN, will be assessed by tabulating the number of unique subjects with this pairing of events. • 5. The frequency of hepatic-related adverse events and hepatic-related treatment. [Time Frame: baseline to end of Week 12] • The frequency of hepatic-related adverse events and hepatic-related treatment discontinuations will be tabulated from case report forms and will be based on unique subjects reporting such events. • 6. The mean change from baseline in the MSQ role function [Time Frame: baseline to end of Week 12] • The mean change from baseline in the MSQ role function—restrictive domain score at Week 12 of the double-blind treatment phase. • 7. The mean change from baseline in the MIDAS total score. [Time Frame: baseline to end of Week 12] • The mean change from baseline in the MIDAS total score at Week 12 of the double-blind treatment phase.
This pivotal study enrolled patients with both episodic and chronic migraine. The study evaluated the efficacy and safety of rimegepant 75 mg (n=370) dosed every other day for the preventive treatment of migraine in patients versus placebo (n=371) who had migraine for at least one year and 4 to 18 moderate to severe migraine attacks per month over three months prior to enrollment. During the one-month observation period, patients experienced on average 10.7 migraine days per month, with 7.4 migraine days of moderate to severe migraine during the same period.

[3] = test system: episodic and chronic migraine patients; experiment: BHV3000-305 study: adverse events and liver safety on double-blind treatment
[4] = 370 patients who received rimegepant 75 mg every other day
[5] = Severity Mild, treated subjects N = 370
[6] = Severity Moderate or Severe, treated subjects N = 370
[7] = Severity Moderate, treated subjects N = 370
[8] = Severity Total, treated subjects N = 370

SMILES: N[C@@H]1c2cccnc2[C@H](OC(=O)N2CCC(n3c(=O)[nH]c4ncccc43)CC2)CC[C@H]1c1cccc(F)c1F [Rimegepant, [(5S,6S,9R)-5-amino-6-(2,3-difluorophenyl)-6,7,8,9-tetrahydro-5H-cyclohepta[b]pyridin-9-yl] 4-(2-oxo-3H-imidazo[4,5-b]pyridin-1-yl)piperidine-1-carboxylate]
- Pertussis [1]: 0 n
- reduction in mean number of migraine days as compared to placebo ([2]; (4.9−3.7)/3.7*100, participants not taking concomitant preventive treatment): 32%
- Change From OP in Mean Number of Total Migraine Days per Month in First Month, Least-squares mean, Difference (Rimegepant − Placebo) ([2]; Evaluable mITT subjects, P-value 0.0013): −0.9
- Change From OP in Mean Number of Total Migraine Days per Month Overall, Least-squares mean, Difference (Rimegepant − Placebo) ([2]; Evaluable mITT subjects, P-value 0.0094): −0.7
- Primary Endpoint: Change From OP in Mean Number of Total Migraine Days per Month in Last Month, Least-squares mean, Difference (Rimegepant − Placebo) ([2]; Evaluable mITT subjects, P-value 0.0176, significant in hierarchical testing): −0.8
- MSQoL Restrictive Role Function Domain Score Change From Baseline at Week 12, Least-squares mean, Difference (Rimegepant − Placebo) ([2]; Evaluable mITT subjects, P-value 0.0358): 3.5
- >=50% Reduction From OP in Mean Number of Moderate or Severe Migraine Days per Month in Last Month, Stratified Risk, Difference (Rimegepant − Placebo) ([2]; Evaluable mITT subjects, P-value 0.0734): 5.7
- Rescue Medication Days per Month In Last Month, Least-squares mean, Difference (Rimegepant − Placebo) ([2]; Evaluable mITT subjects, P-value 0.3868): −0.2
- MIDAS Total Score Change From Baseline at Week 12, Least-squares mean, Difference (Rimegepant − Placebo) ([2]; Evaluable mITT subjects, P-value 0.9616): −0.1
- ALT/AST elevations: relatedness to study drug as judged by independent liver monitoring panel [3, 4]: did not determine any ALT/AST elevations to be in the categories of probably or definitely related to study drug
- cases of ALT or AST>3×ULN and bilirubin>2×ULN [3, 4]: no cases
- Enterobiasis [3, 5]: 0 n
- Folliculitis [3, 5]: 0 n
- Oral candidiasis [3, 5]: 0 n
- Orchitis [3, 5]: 0 n
- Otitis media [3, 5]: 0 n
- Acute sinusitis [3, 6]: 0 n
- Appendicitis [3, 6]: 0 n
- Bacterial vaginosis [3, 6]: 0 n
- Herpes zoster [3, 6]: 0 n
- Pharyngitis streptococcal [3, 6]: 0 n
- Pneumonia [3, 6]: 0 n
- Pyelonephritis [3, 6]: 0 n
- Sepsis [3, 6]: 0 n
- Acute sinusitis [3, 7]: 0 n
- Appendicitis [3, 7]: 0 n
- Bacterial vaginosis [3, 7]: 0 n
- Herpes zoster [3, 7]: 0 n
- Pharyngitis streptococcal [3, 7]: 0 n
- Sepsis [3, 7]: 0 n
- Acute sinusitis [3, 8]: 0 n
- Appendicitis [3, 8]: 0 n
- Enterobiasis [3, 8]: 0 n
- Folliculitis [3, 8]: 0 n
- Oral candidiasis [3, 8]: 0 n
- Orchitis [3, 8]: 0 n
- Otitis media [3, 8]: 0 n
- Pelvic inflammatory disease [3, 8]: 0 n
- Pharyngitis streptococcal [3, 8]: 0 n
- Pneumonia [3, 8]: 0 n
- Pyelonephritis [3, 8]: 0 n
- Sepsis [3, 8]: 0 n
- Tooth infection [3, 8]: 0 n
